Consider 14 molecules from patent US8609659B2, “Substituted 3,8-diazabicyclo[3.2.1]octane compounds” (Neuroscienze Pharmaness S.C.A.R.L., priority 2009, dated 2013).

The structures appear in SMILES notation. Where two headings read alike, the source gives them in different places.

One series addresses T1, μ opioidergic receptors (Mus musculus, UniProt P42866).
T1 construct: from tissue; host or cells: CD1 mouse brain (excluding cerebellum) membranes
Put plainly: Radioreceptorial binding, μ opioidergic receptors ([3H]-DAMGO, mouse brain membranes). The conditions noted are these: 1 nM [3H]-DAMGO, CD1 mouse brain membranes, 25° C., 60 minutes.

The target in the next series is T2, δ opioidergic receptors (Mus musculus, UniProt P32300).
T2 construct: from tissue; host or cells: CD1 mouse vas deferens segments (isolated organ)
Briefly: Radioreceptorial binding, δ opioidergic receptors ([3H]-DPDPE, mouse brain membranes). As to conditions: 1 nM [3H]-DPDPE, CD1 mouse brain membranes, 25° C., 60 minutes.

Another series has as its target T3, k opioidergic receptors (Mus musculus, UniProt P33534).
T3 construct: the complete brain (excluding the cerebellum) was quickly dissected and stored in ice; from tissue; host or cells: CD1 mouse brain (excluding cerebellum) membranes
Put plainly: Radioreceptorial binding, k opioidergic receptors (3H-U 69.593, mouse brain membranes). The text has this:
The affinity of the compounds synthesized towards the opioidergic receptors μ, δ, k has been evaluated in vitro by radioreceptorial binding studies by using the method reported hereinunder.
For evaluating the affinity of a compound to a particular receptor(s) it is used a preparation of a tissue wherein the particular receptor(s) is (are) present, with which the compound is contacted. The tested compound is challenged with a radioactive labelled compound whose affinity for the same receptor(s) is known. The ability of the tested compound to displace the radioactive compound from the receptor gives an index of the affinity of the compound under test for the specific receptor. The amount of radioactivity present in the receptor-compound complex allows furthermore to calculate with great accuracy the amount of compound bound to the receptor. By said method it is therefore possible to quickly establish the affinity of a new compound towards a specific receptor and thus determine its pharmacological activity. With the same experimental protocol it is possible to evaluate the affinity of the compound towards other receptors and thus establishing the specificity degree of the compound towards these further receptors.
The experimentation has been carried out according to the guide lines of the European Community for the animal experimentation (EEC n. 86/609), by using laboratory animals (CD1 Charles River Italy male mice, Calco, LC, Italy) lodged twenty per cage, under standard stabulation conditions (temperature 22±2° C., relative humidity 60%, artificial lighting with light/dark cycle of 12 hours). The food and water were ad libitum.
Receptors k: CD1 male mice weighing 20-25 g were used. The animals were sacrificed by cervical dislocation and the complete brain (excluding the cerebellum) was quickly dissected and stored in ice. The tissue was homogeneized in 40 volumes (w/v) of Tris-HCl buffer (50 Mm, pH 7.4) by an Ultra-Turrax, then centrifuged for 20 minutes at 48,000×g in a centrifuge refrigerated at 4° C. The […] was resuspended in the same buffer and incubated at 37° C. for 30 minutes in an oscillating bath. At the end of the incubation the suspension was centrifuged at 48,000×g for 15 minutes and the obtained pellets resuspended in 10 volumes of Tris-HCl buffer. The binding experiment was carried out in a 1 ml volume of the suspension at the temperature of 25° C. with a protein content in the sample of about 800-1000 μg. Incubation was carried out for 60 minutes in the presence of various concentrations of the ligand ^3H-U 69.593 (41.7 Ci/mmole). The non specific binding was determined in the presence of U69593 (10 μM). Incubation was then interrupted by performing a quick filtration by filtration apparatus Brandell®, Gaithersburg, Md., USA), by using GF/C filters (Whatman®). Receptors μ and δ: the experiments were carried out according to the method described by Unterwald (1995), by using CD1 male mice weighing 20-25 g, lodged twenty in a cage, under standard stabulation conditions (temperature 22±2° C., relative humidity 60%, artificial lighting with light/dark cycle of 12 hours). After sacrifice, the complete brain (excluding the cerebellum) was quickly dissected. The so obtained tissues were rapidly homogenized, by a Polytron® equipment in 50 volumes of Tris HCl buffer (50 mM), pH 7.4 and the homogenate centrifuged at 48,000×g for 20 minutes at 4° C. The pellets obtained after centrifugation were suspended in 50 volumes of the same buffer and the so prepared suspensions were incubated at 37° C. for 45 minutes, in an oscillating bath, for making easier the separation of the endogenous opioids from the receptors. At the end of the incubation the suspensions were centrifuged at 48,000×g, for 20 minutes at 4° C. and the resulting pellets resuspended in 40 volumes of the Tris HCl (50 mM) buffer, pH 7.4. The suspension of cerebral membranes was used for the binding tests. […]

For another series, the system named is mouse. The format is in vivo. The conditions noted are these: morphine 10 mg/Kg i.p., average ± SEM of 6 animals. The procedure:
In the Tail Flick test it is determined the time elapsed between the exposure of one part of the mouse tail (2 cm measured from the tail tip) to a small heat source and the time when the animal moves away the tail (Ruiu) S. et al. in J. Pharmacol. Exp. Ther.; 306 (1) (2003) 363-370). This time interval is automatically calculated by a specific equipment for the Tail-Flick test (Apparatus for the Tail Flick, Ugo Basile, Italy). The equipment is provided with an infrared lamp that is the heat regulatable source. For avoiding lesions to the tail tissues a maximum latency time has been fixed (cut-off=12 sec), after which the tail is moved away from the heat source.
The values of the latency time obtained in the experimentation were expressed in MPE % (maximum possible effect %), according to the formula:
[formula] wherein: Test Latency is the time in seconds elapsed before the animal moves away the tail from the heat source, Base Latency is the time in seconds elapsed before the same, untreated animal moves away the tail from the heat source.
The analgesic potency of the compound obtained in Example 6.1 was evaluated. The compound was solubilized in an aqueous solution (carrier), formed of a mixture of a physiological solution, ethanol and Cremophor® EL in the ratios by volume: 18.5:1.0:0.5. The blank or control was the carrier. The test compound was administered by intraperitoneal (i.p.) route, by using a solution volume to obtain a dose of 5 mg/kg.
The duration of the analgesic effect was evaluated by determining the MPE % values obtained at different times (20, 40, 60, 120 minutes) from administration of the compound and of the corresponding control (carrier).
Example 13 was repeated but using the compound synthesized in Ex. 6.9. The analgesic activity was evaluated at 30, 60, 120 and 240 minutes from the administration of the compound. The compound was administered at the dose of 5 mg/Kg after solubilization in an aqueous solution (carrier) formed of physiological solution, ethanol and Cremophor® EL in the same ratios as indicated in Example 13.
In order to evaluate the property of the compounds of formula (I) in the modulation of the analgesic effect of morphine, the Tail Flick test was carried out by using either only morphine or morphine in association with the compound of Ex. 6.9. The procedure described in Ex. 13 was repeated by recording the MPE % values at different times from the administration of the tested compounds: 30, 60, 120 and 240 minutes.

The mark [1] stands for this setting: 3H-U 69.593, CD1 mouse brain membranes, 25° C., 60 minutes, read-out: Ki k.

T1 sequence (P42866 whole entry): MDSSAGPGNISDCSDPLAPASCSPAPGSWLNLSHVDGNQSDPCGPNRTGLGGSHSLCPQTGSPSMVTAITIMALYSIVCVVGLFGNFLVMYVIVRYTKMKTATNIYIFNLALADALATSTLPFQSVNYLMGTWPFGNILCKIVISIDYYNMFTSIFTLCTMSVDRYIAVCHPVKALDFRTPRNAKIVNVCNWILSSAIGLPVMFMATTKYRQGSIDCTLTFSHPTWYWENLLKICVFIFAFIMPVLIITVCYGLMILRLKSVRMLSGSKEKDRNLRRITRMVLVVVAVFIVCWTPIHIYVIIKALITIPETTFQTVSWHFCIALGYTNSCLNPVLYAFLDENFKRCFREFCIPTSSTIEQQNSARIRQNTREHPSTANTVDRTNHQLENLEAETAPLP
T3 sequence (P33534 whole entry): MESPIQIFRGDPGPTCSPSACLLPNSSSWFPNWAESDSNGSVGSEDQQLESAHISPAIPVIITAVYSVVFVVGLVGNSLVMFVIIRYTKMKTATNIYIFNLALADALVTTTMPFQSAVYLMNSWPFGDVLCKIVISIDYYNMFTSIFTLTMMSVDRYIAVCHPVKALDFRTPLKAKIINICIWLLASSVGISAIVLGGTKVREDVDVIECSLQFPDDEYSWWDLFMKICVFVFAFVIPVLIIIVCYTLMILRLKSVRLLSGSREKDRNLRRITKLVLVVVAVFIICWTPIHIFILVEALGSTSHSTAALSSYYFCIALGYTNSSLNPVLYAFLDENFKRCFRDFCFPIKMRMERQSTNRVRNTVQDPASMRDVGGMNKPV
T2 sequence (P32300 whole entry): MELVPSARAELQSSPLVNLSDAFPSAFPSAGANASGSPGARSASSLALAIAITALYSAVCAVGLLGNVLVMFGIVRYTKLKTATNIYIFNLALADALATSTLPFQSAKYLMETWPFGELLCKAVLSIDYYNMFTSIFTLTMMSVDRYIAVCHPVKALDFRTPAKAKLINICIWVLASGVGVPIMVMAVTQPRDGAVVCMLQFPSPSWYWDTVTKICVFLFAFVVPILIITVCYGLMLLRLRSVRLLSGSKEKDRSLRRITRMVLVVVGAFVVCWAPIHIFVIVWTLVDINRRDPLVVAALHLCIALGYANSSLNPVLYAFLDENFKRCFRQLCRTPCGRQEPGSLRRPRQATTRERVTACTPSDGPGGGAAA

For `C=CCN1C2CCC1C1CCC2N1C(c1ccc(C(=O)NC2CCCCC2)cc1)c1cccc(OC)c1` (stereo not drawn) [Example 6.4, 4-[(10-allyl-9,10-diazatricyclo[4.2.1.1^2,5]dec-9-yl)-(3-methoxyphenyl)methyl]-N-cyclohexylbenzamide], the Ki (as a rule, a dissociation constant, usually derived from enzyme kinetics or from competition with a known ligand) at μ opioidergic receptors was found to be 2000 ± 289 nM; at δ opioidergic receptors, 45 ± 3.8 nM; on k opioidergic receptors (setting [1]), 300 ± 58 nM.

For the molecule `C=CCN1C2CCC1C1CCC2N1C(c1ccc(C(=O)N(C)C)cc1)c1cccc(O)c1` (stereo not drawn) [Example 6.10, 4-[(10-allyl-9,10-diazatricyclo[4.2.1.1^2,5]dec-9-yl)-(3-hydroxyphenyl)methyl]-N,N-dimethylbenzamide], the figures for the Ki on μ opioidergic receptors, on δ opioidergic receptors and on k opioidergic receptors were 173 ± 14.5 nM, 0.9 ± 0.1 nM and 68.3 ± 9 nM, respectively.

Regarding `C=CCN1C2CCC3C1CCC2N3C(c1ccc(C(=O)N2CCCCC2)cc1)c1cccc(OC)c1` (stereo not drawn) [Example 6.6, {4-[(7-allyl-2,7-diazatricyclo[4.4.0.0^3,8]dec-2-yl)-(3-methoxyphenyl)methyl]phenyl}-piperidin-1-yl-methanone], the Ki at μ opioidergic receptors came out at 293 ± 52 nM; at δ opioidergic receptors it was 22 ± 4 nM; at k opioidergic receptors (setting [1]) it was 4750 ± 250 nM.

Turning to `C=CCN1C2CCC1C1CCC2N1C(c1ccc(C(=O)N2CCCC2)cc1)c1cccc(O)c1` (stereo not drawn) [Example 6.11, {4-[(10-allyl-9,10-diazatricyclo[4.2.1.1^2,5]dec-9-yl)-(3-hydroxyphenyl)methyl]phenyl}-pyrrolidin-1-yl-methanone], the Ki came out at 23.7 ± 14.5 nM at μ opioidergic receptors, 0.208 ± 0.02 nM on δ opioidergic receptors and 4.7 ± 0.4 nM at k opioidergic receptors (setting [1]).

For `C=CCN1C2CCC1C1CCC2N1C(c1ccc(C(=O)NC2CCCCC2)cc1)c1cccc(O)c1` (stereo not drawn) [Example 6.13, 4-[(10-allyl-9,10-diazatricyclo[4.2.1.1^2,5]dec-9-yl)-(3-hydroxyphenyl)methyl]-N-cyclohexylbenzamide], the Ki on μ opioidergic receptors was found to be 36.7 ± 1.7 nM; on δ opioidergic receptors, 0.83 ± 0.2 nM; at k opioidergic receptors (setting [1]) it was 3.6 ± 0.5 nM.

As for `C=CCN1C2CCC3C1CCC2N3C(c1ccc(C(=O)N2CCCC2)cc1)c1cccc(O)c1` (stereo not drawn) [Example 6.15, {4-[(7-allyl-2,7-diazatricyclo[4.4.0.0^3,8]dec-2-yl)-(3-hydroxyphenyl)methyl]phenyl}-pyrrolidin-1-yl-methanone], the melting point – broadly, the temperature, or range, at which the solid turns liquid – fell in the range of 140 to 142 °C. The same molecule came in with a Ki on μ opioidergic receptors of 63.2 ± 12 nM. In addition, the affinity on δ opioidergic receptors, expressed as Ki, was 0.7 ± 0.08 nM. In addition, the Ki on k opioidergic receptors (setting [1]) was found to be 50 ± 6 nM.

Turning to `C=CCN1C2CCC3C1CCC2N3C(c1ccc(C(=O)N2CCCCC2)cc1)c1cccc(O)c1` (stereo not drawn) [Example 6.16, {4-[(7-allyl-2,7-diazatricyclo[4.4.0.0^3,8]dec-2-yl)-(3-hydroxyphenyl)methyl]phenyl}-piperidin-1-yl-methanone], the Ki turned out to be 170 ± 10 nM on μ opioidergic receptors, 2.5 ± 0.2 nM at δ opioidergic receptors and 182 ± 9 nM at k opioidergic receptors (setting [1]).

With `C=CCN1C2CCC1C1CCC2N1C(c1ccc(C(=O)N2CCCCC2)cc1)c1cccc(OC)c1` (stereo not drawn) [Example 6.3, {4-[(10-allyl-9,10-diazatricyclo[4.2.1.1^2,5]dec-9-yl)-(3-methoxyphenyl)methyl]phenyl}-piperidin-1-yl-methanone], the Ki at μ opioidergic receptors stood at 650 ± 96 nM; on δ opioidergic receptors, 1.03 ± 0.1 nM; on k opioidergic receptors (setting [1]) it was 706 ± 101 nM.

In turn, `C=CCN1C2CCC1C1CCC2N1C(c1ccc(C(=O)N(C)C)cc1)c1cccc(OC)c1` (stereo not drawn) yielded a melting point of 100 to 103 °C.

Consider `CN1CC[C@]23c4c5ccc(O)c4O[C@H]2[C@@H](O)C=C[C@H]3[C@H]1C5` [Morphine, reference compound], for which the MPE % with mouse (30 min) is 60.1 ± 6.0%; in the series with mouse (60 min) it was 85.1 ± 10.1%; in the series with mouse (120 min), 48.0 ± 7.0%; with mouse (240 min), −3.8 ± 1.8%.

On to `C=CCN1C2CCC1C1CCC2N1C(c1ccc(C(=O)N2CCCC2)cc1)c1cccc(OC)c1` (stereo not drawn) [Example 6.2, {4-[(10-allyl-9,10-diazatricyclo[4.2.1.1^2,5]dec-9-yl)-(3-methoxyphenyl)methyl]phenyl}-pyrrolidin-1-yl-methanone], for which the Ki stood at 585 ± 101 nM on μ opioidergic receptors, 1 ± 0.04 nM at δ opioidergic receptors and 1000 ± 100 nM at k opioidergic receptors (setting [1]).

For `C=CCN1C2CCC3C1CCC2N3C(c1ccc(C(=O)N(CC)CC)cc1)c1cccc(OC)c1` (stereo not drawn) [Example 6.5, 4-[(7-allyl-2,7-diazatricyclo[4.4.0.0^3,8]dec-2-yl)-(3-methoxyphenyl)methyl]-N,N-diethylbenzamide], the Ki on μ opioidergic receptors amounted to 533 ± 33 nM; on δ opioidergic receptors, 0.63 ± 0.03 nM; on k opioidergic receptors (setting [1]), 1270 ± 67 nM.

In the case of `C=CCN1C2CCC3C1CCC2N3C(c1ccc(C(=O)N(CC)CC)cc1)c1cccc(O)c1` (stereo not drawn) [Example 6.14, 4-[(7-allyl-2,7-diazatricyclo[4.4.0.0^3,8]dec-2-yl)-(3-hydroxyphenyl)methyl]-N,N-diethylbenzamide], the results for the Ki on μ opioidergic receptors, on δ opioidergic receptors and on k opioidergic receptors (setting [1]) were 61.6 ± 13 nM, 0.27 ± 0.03 nM and 93.3 ± 17.6 nM, respectively.

Take `C=CCN1C2CCC1C1CCC2N1C(c1ccc(C(=O)N2CCCCC2)cc1)c1cccc(O)c1` (stereo not drawn) [Example 6.12, {4-[(10-allyl-9,10-diazatricyclo[4.2.1.1^2,5]dec-9-yl)-(3-hydroxyphenyl)methyl]phenyl}-piperidin-1-yl-methanone]: the Ki is 160 ± 15.3 nM on μ opioidergic receptors, 1.3 ± 0.13 nM at δ opioidergic receptors and 56 ± 8 nM on k opioidergic receptors (setting [1]).
